We go through 20 compounds from US11524966B1 (Valo Early Discovery, Inc., priority 2017, dated 2022).

The test addresses T1, USP25 (USP25-His6, Boston Biochem E-546) (Homo sapiens, UniProt Q9UHP3).
T1 construct: His6; purchased Boston Biochem E-546
T1 sequence (Q9UHP3 1-1055): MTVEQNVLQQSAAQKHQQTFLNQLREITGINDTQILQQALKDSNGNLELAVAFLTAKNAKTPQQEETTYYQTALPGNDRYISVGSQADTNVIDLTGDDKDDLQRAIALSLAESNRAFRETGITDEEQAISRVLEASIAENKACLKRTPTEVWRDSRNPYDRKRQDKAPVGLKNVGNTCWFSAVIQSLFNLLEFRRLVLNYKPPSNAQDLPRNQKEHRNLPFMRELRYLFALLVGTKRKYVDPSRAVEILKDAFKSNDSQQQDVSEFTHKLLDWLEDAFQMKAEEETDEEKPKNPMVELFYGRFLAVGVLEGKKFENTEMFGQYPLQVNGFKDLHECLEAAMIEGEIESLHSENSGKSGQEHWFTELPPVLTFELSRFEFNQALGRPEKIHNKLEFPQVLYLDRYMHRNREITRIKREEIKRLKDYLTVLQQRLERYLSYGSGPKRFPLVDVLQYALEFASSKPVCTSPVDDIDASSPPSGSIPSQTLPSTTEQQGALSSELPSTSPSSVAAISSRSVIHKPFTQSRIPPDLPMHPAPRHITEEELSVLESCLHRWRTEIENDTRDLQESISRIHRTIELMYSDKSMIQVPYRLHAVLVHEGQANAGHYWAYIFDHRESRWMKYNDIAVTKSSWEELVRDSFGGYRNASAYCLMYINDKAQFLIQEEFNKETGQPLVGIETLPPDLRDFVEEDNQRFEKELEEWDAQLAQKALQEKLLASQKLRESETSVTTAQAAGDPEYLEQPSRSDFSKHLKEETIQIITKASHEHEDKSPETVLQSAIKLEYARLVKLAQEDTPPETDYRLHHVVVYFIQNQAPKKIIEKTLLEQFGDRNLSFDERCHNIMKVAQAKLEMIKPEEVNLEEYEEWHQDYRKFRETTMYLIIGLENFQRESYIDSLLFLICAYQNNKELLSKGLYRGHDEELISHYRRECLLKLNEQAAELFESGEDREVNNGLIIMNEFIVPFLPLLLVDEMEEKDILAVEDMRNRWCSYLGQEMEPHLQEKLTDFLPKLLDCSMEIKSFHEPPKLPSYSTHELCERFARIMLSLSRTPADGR
The test can be described thus: Ubiquitin-Rhodamine 110 Assay for USP25 Activity, Example A-2. The conditions noted are these: Ubiquitin-Rhodamine 110 assay, Example A-2; read-out: USP25 A-2 IC50 range. The test is classed as biochemical. In outline: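 Read-out: Rh110 fluorescence (ex 485, em 535 nm) after 45 min RT turnover of 25 nM Ub-Rh110 by 75 pM USP25-His6, quenched with 10 mM citric acid. Compounds at 25 μM–1.3 nM, preincubated 30 min with enzyme. IC50 from 4-parameter logistic fit.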
A word on the IC50: it is the concentration needed to halve the response being measured. Turning to `Cc1ccc2c(N)c(C(=O)N[C@H]3COc4cc(N5C[C@@H](F)[C@@H](N)C5)ccc4C3)sc2n1` (single isomer, unassigned) [Example 3-6], the IC50 was 200 to 2000 nM.

`CO[C@@H]1CN(c2ccc3c(n2)CC[C@H](NC(=O)c2sc4nc(C)ccc4c2N)C3)C[C@@H]1N` [Example 269, 3-amino-N-[(6S)-2-[(3S,4R)-3-amino-4-methoxypyrrolidin-1-yl]-5,6,7,8-tetrahydroquinolin-6-yl]-6-methylthieno[2,3-b]pyridine-2-carboxamide]: the half-inhibitory concentration (IC50) was greater than 2000 nM.

Turning to `COC[C@H]1CN(c2ccc3c(n2)CC[C@H](NC(=O)c2sc4nc(C)ccc4c2N)C3)C[C@@H]1N` [Example 327, 3-amino-N-[(6S)-2-[(3R,4S)-3-amino-4-(methoxymethyl)pyrrolidin-1-yl]-5,6,7,8-tetrahydroquinolin-6-yl]-6-methylthieno[2,3-b]pyridine-2-carboxamide], the concentration for half-maximal inhibition (IC50) was in the range of 200 to 2000 nM.

Turning to `Cc1ccc2c(N)c(C(=O)N[C@H]3COc4cc(N5C[C@H](N)[C@@]6(CCCO6)C5)ccc4C3)sc2n1` [Example 310, 3-amino-N-[(3R)-7-[(5R,9S)-9-amino-1-oxa-7-azaspiro[4.4]nonan-7-yl]-3,4-dihydro-2H-1-benzopyran-3-yl]-6-methylthieno[2,3-b]pyridine-2-carboxamide], the concentration for half-maximal inhibition (IC50) lay within 200 to 2000 nM.

Consider `COC[C@H]1CN(c2ccc3c(n2)CC[C@H](NC(=O)c2sc4nc(C)cc(C)c4c2N)C3)C[C@H]1N` [Example 297, 3-amino-N-[(6S)-2-[(3S,4S)-3-amino-4-(methoxymethyl)pyrrolidin-1-yl]-5,6,7,8-tetrahydroquinolin-6-yl]-4,6-dimethylthieno[2,3-b]pyridine-2-carboxamide], for which the concentration for half-maximal inhibition (IC50) was in the range of 200 to 2000 nM.

`Cc1ccc2c(N)c(C(=O)N[C@H]3COc4nc(N5C[C@H](OC(C)C)[C@@H](N)C5)ccc4C3)sc2n1` [Example 287, 3-amino-N-[(3R)-7-[(3S,4S)-3-amino-4-(propan-2-yloxy)pyrrolidin-1-yl]-2H,3H,4H-pyrano[2,3-b]pyridin-3-yl]-6-methylthieno[2,3-b]pyridine-2-carboxamide]: the IC50 is greater than 2000 nM.

As to `Cc1ccc2c(N)c(C(=O)N[C@H]3COc4cc(N5CCC6(CNC6)C5)ccc4C3)sc2n1` [Example 306, 3-amino-N-[(3R)-7-{2,6-diazaspiro[3.4]octan-6-yl}-3,4-dihydro-2H-1-benzopyran-3-yl]-6-methylthieno[2,3-b]pyridine-2-carboxamide], the IC50 is 200 to 2000 nM.

Take `N#Cc1c(N2CC3CCC(C2)N3)cc2c(c1F)C[C@@H](NC(=O)c1cnc3c(c1)[C@H]1C[C@H]1CN3)CO2` [Example 265, (6aR,7aS)-N-[(3R)-6-cyano-7-{3,8-diazabicyclo[3.2.1]octan-3-yl}-5-fluoro-3,4-dihydro-2H-1-benzopyran-3-yl]-5H,6H,6aH,7H,7aH-cyclopropa[c]1,8-naphthyridine-2-carboxamide]: the half-inhibitory concentration (IC50) lay in the range of 200 to 2000 nM.

For the compound `Cc1ccc2c(N)c(C(=O)N[C@H]3COc4cc(N5CC6(C5)OCC[C@@H]6N)ccc4C3)sc2n1` [Example 338, 3-amino-N-[(3R)-7-[(8S)-8-amino-5-oxa-2-azaspiro[3.4]octan-2-yl]-3,4-dihydro-2H-1-benzopyran-3-yl]-6-methylthieno[2,3-b]pyridine-2-carboxamide], the IC50 was 200 to 2000 nM.

Consider `CO[C@H]1CN(c2ccc3c(c2)OC[C@H](NC(=O)c2sc4nc(C)ccc4c2N)C3)[C@@H](C)[C@@H]1N` [Example 333, 3-amino-N-[(3R)-7-[(2S,3S,4S)-3-amino-4-methoxy-2-methylpyrrolidin-1-yl]-3,4-dihydro-2H-1-benzopyran-3-yl]-6-methylthieno[2,3-b]pyridine-2-carboxamide], for which the IC50 lay in the range of 50 to 200 nM.

Take `Cc1cnc2c(N)c(C(=O)N[C@H]3CCc4cc(N5C[C@H](OC(C)C)[C@@H](N)C5)ccc4C3)sc2n1` [Example 319, 7-amino-N-[(2S)-6-[(3S,4S)-3-amino-4-(propan-2-yloxy)pyrrolidin-1-yl]-1,2,3,4-tetrahydronaphthalen-2-yl]-3-methylthieno[2,3-b]pyrazine-6-carboxamide]: the IC50 is greater than 2000 nM.

As to `COC[C@H]1CN(c2ccc3c(c2)OC[C@H](NC(=O)c2sc4nc(C)cc(C)c4c2N)C3)C[C@H]1N` [Example 276, 3-amino-N-[(3R)-7-[(3S,4S)-3-amino-4-(methoxymethyl)pyrrolidin-1-yl]-3,4-dihydro-2H-1-benzopyran-3-yl]-4,6-dimethylthieno[2,3-b]pyridine-2-carboxamide], the 50% inhibitory concentration (IC50) was 50 to 200 nM.

`Cc1ccc2c(N)c(C(=O)N[C@H]3COc4cc(N5C[C@@H](N)[C@@]6(CCCO6)C5)ccc4C3)sc2n1` [Example 308, 3-amino-N-[(3R)-7-[(5R,9R)-9-amino-1-oxa-7-azaspiro[4.4]nonan-7-yl]-3,4-dihydro-2H-1-benzopyran-3-yl]-6-methylthieno[2,3-b]pyridine-2-carboxamide]: the half-maximal inhibitory concentration (IC50) is 200 to 2000 nM.

In the case of `CCO[C@H]1CN(c2ccc3c(c2)CC[C@H](NC(=O)c2sc4nc(C)ccc4c2N)C3)C[C@H]1N` [Example 268, 3-amino-N-[(2S)-6-[(3R,4S)-3-amino-4-ethoxypyrrolidin-1-yl]-1,2,3,4-tetrahydronaphthalen-2-yl]-6-methylthieno[2,3-b]pyridine-2-carboxamide], the IC50 is greater than 2000 nM.

On to `Cc1ccc2c(N)c(C(=O)N[C@H]3COc4cc(N5C[C@@H](N)[C@H](C(F)F)C5)ccc4C3)sc2n1` [Example 295, 3-amino-N-[(3R)-7-[(3S,4R)-3-amino-4-(difluoromethyl)pyrrolidin-1-yl]-3,4-dihydro-2H-1-benzopyran-3-yl]-6-methylthieno[2,3-b]pyridine-2-carboxamide], for which the IC50 lay within 50 to 200 nM.

Take `Cc1ccc2c(N)c(C(=O)N[C@H]3COc4cc(N5C[C@@H](N)[C@@H](F)C5)ccc4C3)sc2n1` (single isomer, unassigned) [Example 3-5]: the IC50 was in the range of 200 to 2000 nM.

For `CO[C@@]1(C)CN(c2ccc3c(n2)OC[C@H](NC(=O)c2sc4nc(C)ccc4c2N)C3)C[C@@H]1N` [Example 325, 3-amino-N-[(3R)-7-[(3S,4S)-4-amino-3-methoxy-3-methylpyrrolidin-1-yl]-2H,3H,4H-pyrano[2,3-b]pyridin-3-yl]-6-methylthieno[2,3-b]pyridine-2-carboxamide], the concentration for half-maximal inhibition (IC50) was greater than 2000 nM.

As to `COC[C@@H]1CN(c2cc(F)c3c(c2F)OC[C@H](NC(=O)c2sc4nc(C)cc(C)c4c2N)C3)C[C@@H]1N` [Example 277, 3-amino-N-[(3R)-7-[(3R,4R)-3-amino-4-(methoxymethyl)pyrrolidin-1-yl]-5,8-difluoro-3,4-dihydro-2H-1-benzopyran-3-yl]-4,6-dimethylthieno[2,3-b]pyridine-2-carboxamide], the IC50 is 200 to 2000 nM.

Turning to `CN[C@H]1CN(c2ccc3c(n2)CC[C@H](NC(=O)c2sc4nc(C)ccc4c2N)C3)C[C@@H]1OC` [Example 311, 3-amino-N-[(6S)-2-[(3S,4S)-3-methoxy-4-(methylamino)pyrrolidin-1-yl]-5,6,7,8-tetrahydroquinolin-6-yl]-6-methylthieno[2,3-b]pyridine-2-carboxamide], the half-inhibitory concentration (IC50) was greater than 2000 nM.

With `CO[C@@H]1[C@@H](N)CN(c2ccc3c(c2)OC[C@H](NC(=O)c2sc4nc(C)ccc4c2N)C3)[C@H]1C` [Example 283, 3-amino-N-[(3R)-7-[(2S,3R,4S)-4-amino-3-methoxy-2-methylpyrrolidin-1-yl]-3,4-dihydro-2H-1-benzopyran-3-yl]-6-methylthieno[2,3-b]pyridine-2-carboxamide], the concentration for half-maximal inhibition (IC50) lay in the range of 50 to 200 nM.
